Data taken from PubChem BioAssay (NCI).
Several values for one entry are separate records, joined by “and”; a condition that tells them apart may be missing. Identical values can stand only once.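 Following 48 hours of exposure in 96-well plates, responses at five concentrations were used to interpolate endpoints linearly. Abbreviation: GI50, concentration required for 50% inhibition of growth. At the TGI there is no net growth.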

What was measured:
Assay in all cases: inhibition of tumour cell growth, NCI panel, 48 h
OVCAR-5 ovarian = system: OVCAR-5 ovarian
SF-295 CNS = system: SF-295 CNS
MALME-3M melanoma = system: MALME-3M melanoma
T-47D breast = system: T-47D breast
ACHN renal = system: ACHN renal
HT29 colon = system: HT29 colon
HCT-116 colon = system: HCT-116 colon
HCT-15 colon = system: HCT-15 colon
PC-3 prostate = system: PC-3 prostate
U251 CNS = system: U251 CNS

Structure (SMILES)	GI50 (OVCAR-5 ovarian)	TGI (OVCAR-5 ovarian)	GI50 (SF-295 CNS)	TGI (SF-295 CNS)	GI50 (MALME-3M melanoma)	TGI (MALME-3M melanoma)	GI50 (T-47D breast)	TGI (T-47D breast)	GI50 (ACHN renal)	TGI (ACHN renal)	GI50 (HT29 colon)	TGI (HT29 colon)	GI50 (HCT-116 colon)	TGI (HCT-116 colon)	GI50 (HCT-15 colon)	TGI (HCT-15 colon)	GI50 (PC-3 prostate)	TGI (PC-3 prostate)	GI50 (U251 CNS)	TGI (U251 CNS)
C#C[C@]1(O)CC[C@H]2[C@@H]3CC=C4c5sc(N=C(N)N)nc5CC[C@]4(C)[C@H]3CC[C@@]21C	1.33 µM	2.65 µM	188 nM	0.452 µM	338 nM	1.19 µM	1.19 µM	3.16 µM	971 nM	2.21 µM	361 nM	1.69 µM	989 nM	2.29 µM	0.525 µM	1.98 µM	0.475 µM	1.8 µM	0.388 µM	1.85 µM
COc1ccc2c(c1)CC[C@@H]1[C@@H]2CC[C@@]2(C)[C@H]1CC1(CCCCC1)[C@@H]2O	13.1 µM	28.3 µM	9050 nM	23.1 µM	18800 nM	36.3 µM	15.7 µM	39.7 µM	14700 nM	28.2 µM	1810 nM	4.39 µM	12300 nM	26.4 µM	2.59 µM	10.2 µM	7.93 µM	21.7 µM	10 µM	24.4 µM
CN1CCC2(CC1)C(=O)N(N1CCCCCC1)C(=O)N2c1ccccc1	–	> 100 µM	–	> 100 µM	–	> 100 µM	–	> 100 µM	–	> 100 µM	–	> 100 µM	–	> 100 µM	–	> 100 µM	–	> 100 µM	–	> 100 µM
COc1cc([C@@H]2c3cc4c(cc3[C@@H](NCCNCCO)[C@H]3COC(=O)[C@H]23)OCO4)cc(OC)c1O	14 µM and 5.18 µM	51.2 µM and 25.5 µM	1610 nM and 719 nM	> 29 µM and 7.12 µM	2720 nM and 1200 nM	24.4 µM and 10.8 µM	–	11.9 µM and 8.93 µM	856 nM and 2430 nM	8.68 µM and 21.2 µM	–	> 29.9 µM	–	44 µM and 32.9 µM	–	> 100 µM	–	> 100 µM	–	5.35 µM
CC(=O)/C=C/C1=C(c2cc3ccccc3s2)c2ccccc2CC1	27 µM	67.9 µM	37000 nM	> 100 µM	26600 nM	58.4 µM	8.58 µM	> 100 µM	19400 nM	45.5 µM	21000 nM	> 100 µM	20700 nM	65.1 µM	21.8 µM	67.3 µM	18.4 µM	> 100 µM	39.6 µM	> 100 µM
Cn1c(=O)cc2c3c(c(NCCCO)ccc31)C(=O)c1ccccc1-2	32.8 µM	> 100 µM	1760 nM	> 100 µM	2120 nM	7.35 µM	13 µM	> 100 µM	1210 nM	> 100 µM	2160 nM	> 100 µM	491 nM	> 100 µM	3.86 µM	> 100 µM	3 µM	> 100 µM	2.6 µM	> 100 µM
CN1C(=O)CNC(=O)[C@H](NC(=O)c2nc3ccccc3cc2O)CSSC[C@H]1C(=O)NCCc1nc2ccccc2cc1O	24.9 µM	62.1 µM	14300 nM	> 100 µM	15800 nM	44.1 µM	8.09 µM	29.7 µM	15300 nM	38.7 µM	3120 nM	16.4 µM	2050 nM	57.6 µM	20.7 µM	> 62.5 µM	18.9 µM	> 70.4 µM	16.5 µM	43 µM
